Series [1] can be described thus: pH of organic amine stabilizers (Table 1, mostly determined experimentally). Format: physicochemical. Particulars: pH in water, some from the literature. From the text:
The fluid also comprises an organic amine stabilizing agent that has a first pKa or a pH in water of at least about 9.5. The organic amine preferably has from 1-20 carbon atoms, more preferably 1-10 carbon atoms. In one particularly preferred embodiment, the organic amine has the formula: […]
Table 1 below lists a number of organic amines that can be used as stabilizers in the present invention. The pKa values in the table are from the literature; the pH values in the table were mostly determined experimentally, although some were taken from the literature.

For series [2] the following is noted: cited from earlier work.
The nature of series [3]: Viscosity retention of CMHPG linear gels after aging at 325° F. (Example 1, Table 2). The note with it: TEPA 5 gpt, no secondary additive. It is filed as physicochemical. The method, then: Aqueous polymer solutions were aged in an air oven at elevated temperatures, and their viscosity was measured before and after the aging. […] The base gels were made in 1 liter quantities, and stored in Nalgene-type plastic bottles. The viscosity of each batch of base gel was measured at 70° F. on a Contraves LS-30 viscometer to establish the baseline for that batch.

Series [4] in a line: Typical pH of fracturing fluid with TEPA as the stabilizer. The note with it: TEPA used as the stabilizer. Format: physicochemical. The source says: where R1 is C1 -C4 alkyl and n is from 1-6. Preferably R1 is ethylene and n is 4. This preferred amine, tetraethylenepentamine (TEPA), is available from Dow Chemical.

The structures appear in SMILES notation. “And” between values parts separate entries of the source, which are not always exact repeats. Identical values can stand only once. Like-named read-outs stand apart in the source and are kept apart here.

In series [1], `NCCCOCCOCCCN` [NDPA-10, di-(gamma-aminopropylether) of ethylene glycol] yielded a pH of 11.58.

Take `NCCCNCCNCCCN` [BAPED, N,N'-bis(3-aminopropyl)ethylene-diamine]: the pH in series [1] turned out to be 11.72.

In general, pKa refers to the pH at which an ionisable group is half protonated. For the compound `NCCCCN` [tetramethylenediamine], the pKa in series [2] was 10.7.

For `NCCCN` [1,3-diaminopropane], the pKa is 10.9 in series [2] and 9.0 in series [2] (second value).

As for `CC(N)CN` (stereo not drawn) [1,2-diaminopropane], the pKa in series [2] is 9.8; in series [2] (second value), 6.6.

With `NCCCCCCN` [hexamethylenediamine], the pKa in series [2] is listed as 11.9.

For the compound `NCCN(CCN)CCN` [TAA, tris-(2-aminoethyl)amine], the pH in series [1] came to 11.25.

`CCN(O)CC` [DHA, N,N-diethylhydroxylamine] had a pH in series [1] of 11.06.

Consider `CCCCN` [n-butylamine], for which the pKa in series [2] was 10.8.

In turn, `CC(COCCCN)COCCCN` [DPA-12, di-(gamma-aminopropylether) of 2-methyl-1,3-propane diol] displayed a pH in series [1] of 11.41.

In turn, `NCCCOCCCCOCCCN` [NDPA-12, di-(gamma-aminopropylether) of 1,4-butane diol] displayed a pH in series [1] of 11.55.

On to `NCCN` [ethylenediamine], for which the pKa is listed as 10.7 in series [2] and 7.6 in series [2] (second value).

Consider `CCCCCCCCCCCCN` [DDA, dodecylamine], for which the pH in series [1] came out at 10.22.

As to `NCCNCCNCCNCCN` [tetraethylenepentamine], the “% of initial viscosity after 2 hrs.” value in series [3] (325° F.) was 93% and 63%. Moreover, in series [3], the “pH (Comments)” value is given as 11.50. Further, the “pH of the fluid” value in series [4] is listed as “about 10.8”. Also, the pH in series [1] is listed as 11.29.

`NCCNCCN` [diethylenetriamine] registered a pH in series [1] of 11.42.

Turning to `CCCCCCCCCCN` [n-decylamine], the pKa in series [2] is 10.6.

With `NCCCCN` [1,4-diaminobutane], the pKa in series [2] is reported as 11.2; in series [2] (second value) it was 9.7.

Values taken from patent US6227295A, “High temperature hydraulic fracturing fluid” (Schlumberger Technology Corporation, priority 1999, dated 2001).
